Data set [1] concerns MDA-MB-231. Description: Photocytotoxicity in human MDA-MB-231 cells assessed as cell viability preincubated with compound for 1 hr followed by light irradiated with 400 to 700 nm 100 mW/cm^2 for 10 mins and measured after 24 hrs by CCK-8 assay. Format: functional, cell-based. Particulars: MDA-MB-231, light or radiation study. A general note: Tetrazolium dyes change colour on reduction, which living cells bring about.

In data set [2] the test system is MDA-MB-231. Nature of the data set: Photocytotoxicity in human MDA-MB-231 cells assessed as cell viability at 1 uM preincubated with compound for 1 hr followed by light irradiated with 400 to 700 nm 100 mW/cm^2 for 10 mins and measured after 24 hrs by CCK-8 assay. In kind it is functional, cell-based. Particulars: time 1510.0 min.
Data set [3] can be described thus: Dark cytotoxicity against human MDA-MB-231 cells assessed as cell viability incubated for 24 hrs by CCK8 assay. In kind it is toxicity, cell-based.

Calls of active or inactive are those of the source. The calls are words filed in the database; no cut-off is given here.

As a reminder, the IC50 is the concentration that inhibits the measured activity by half.

Consider `C[N+]1=C(/C=C/c2ccc(-c3cnn4ccc(N5CCOCC5)nc34)s2)C(C)(C)c2ccccc21`, for which, in data set [1], the IC50 was determined as 330 nM. Also, the result in data set [2] was Active. The IC50 at 24 h in data set [3] was over 10 µM.
